Test results: ChEMBL document CHEMBL1151368, “Some new decussine-type alkaloids from Strychnos decussata, Strychnos dale and Strychnos elaecocarpa” (1981)
Activity calls are given as the source filed them. No cut-off for these calls is given here.

Assays:
Format in all cases: functional
Rattus norvegicus [1] = species on record: Rattus norvegicus; experiment: Muscle relaxant activity in rat assessed as reduction in electrically stimulated phrenic nerve-induced diaphragm contraction at 50 ug/ml
Rattus norvegicus [2] = species on record: Rattus norvegicus; experiment: Muscle relaxant activity in rat assessed as reduction in electrically stimulated phrenic nerve-induced diaphragm contraction at 5.1 ug/ml in presence of synstigmine
Rattus norvegicus [3] = species on record: Rattus norvegicus; experiment: Muscle relaxant activity in rat assessed as reduction in electrically stimulated phrenic nerve-induced diaphragm contraction at 5.1 ug/ml; design: scale not given: the % may be the effect or the level left

C[C@@H]1c2cnccc2CC2c3c(c4ccccc4n31)CCN2C (stereo partly drawn)
Activity (Rattus norvegicus [1]): inactive

C[C@@H]1c2cnccc2C=C2c3c(c4ccccc4n31)CCN2C [DECUSSINE]
Activity (Rattus norvegicus [2]): Active
Activity (Rattus norvegicus [3]): 50%
